Measured values from article PMC8964335 (Drug Design, Development and Therapy, 2022).
“Also recorded” adds a separate entry of the source. Like-named read-outs stand apart in the source and are kept apart here.

Tests used:
[1] = no reference given; cited from earlier work
[2] = system: patients with hematological malignancies; test: Adverse effects during the DDI study; format: in vivo, human
CYP3A4 = conditions: cited from earlier work
[3] = system: patients receiving ruxolitinib; conditions: patients receiving ruxolitinib vs control regimen; cited from earlier work
SR-aGVHD patients = conditions: 10 mg ruxolitinib twice daily, cited from earlier work
CYP2C9 = conditions: cited from earlier work
[4] = human; cited from earlier work
patients undergoing HSCT = conditions: initial dose 5 mg twice daily; cited from earlier work
[5] = Ruxolitinib pharmacokinetics without and with co-administered voriconazole; format: in vivo, human
healthy people = conditions: cited from earlier work
[6] = presence vs absence of food; cited from earlier work
[7] = coadministered with fluconazole vs ruxolitinib alone; cited from earlier work
[8] = 10 mg once daily for 10 days; cited from earlier work
[9] = system: breast cancer resistance protein (BCRP); conditions: cited from earlier work
[10] = Voriconazole steady-state check from two adjacent trough concentrations; format: in vivo, human; conditions: first four patients, day 4, 200 mg per 12 h without loading dose
[11] = after pre-treatment with voriconazole vs ruxolitinib alone
[12] = ruxolitinib 5 mg co-administered with voriconazole
[13] = with voriconazole vs ruxolitinib alone

Question: For `CC[C@@H]([C@H](C)O)n1ncn(-c2ccc(N3CCN(c4ccc(OC[C@@H]5CO[C@@](Cn6cncn6)(c6ccc(F)cc6F)C5)cc4)CC3)cc2)c1=O` [posaconazole], which bioavailability [1] is on record?
Answer: 83%

Question: For `N#CC[C@H](C1CCCC1)n1cc(-c2ncnc3[nH]ccc23)cn1` [ruxolitinib], which adverse effects ([2]; two single doses of 5 mg ruxolitinib) is on record?
Answer: No observed adverse effects; also recorded: No adverse effect

Question: And the “share of metabolism by CYP3A4” value (CYP3A4)?
Answer: 76%

Question: And the fungal infection [3]?
Answer: 11.5%

Question: What about the “overall response on day 28” value (SR-aGVHD patients; SR-aGVHD) of the same compound?
Answer: 62%

Question: And the “anemia, severe (grade ≥ 3) adverse event” value (SR-aGVHD patients)?
Answer: 22%

Question: And the “neutropenia, severe (grade ≥ 3) adverse event” value (SR-aGVHD patients)?
Answer: 13%

Question: And the “thrombocytopenia, severe (grade ≥ 3) adverse event” value (SR-aGVHD patients)?
Answer: 27%

Question: And the “share of metabolism by CYP2C9” value (CYP2C9)?
Answer: 19%

Question: And the “unchanged parent molecules in urine and feces” value [4]?
Answer: less than 1%

Question: And the “patients developing severe cytopenia” value (patients undergoing HSCT)?
Answer: 60%

Question: And the patients responding (patients undergoing HSCT)?
Answer: 75%

Question: What about the “AUCinf increased by” value [5, 11] of the same compound?
Answer: 118.3%

Question: What about the “AUClast increased by” value [5, 11] of the same compound?
Answer: 110.1%

Question: What about the “Cmax increased by” value [5, 11] of the same compound?
Answer: 50.4%

Question: And the “T1/2 increased by” value [5, 11]?
Answer: 81.3%

Question: And the “change in Tmax” value [5, 11]?
Answer: no significant change

Question: What about the “CL/F % of ruxolitinib alone” value [5, 12] of the same compound?
Answer: 43.6%

Question: What about the “Cmax % of ruxolitinib alone” value [5, 12] of the same compound?
Answer: 150.4%

Question: And the CL/F ([5]; ruxolitinib 5 mg single oral dose alone, 12 patients, mean ± SD)?
Answer: 22.5 ± 6.4 L/h

Question: What about the “AUClast increased to” value [5, 13] of the same compound?
Answer: approximately 2.1 fold

Question: What about the “T1/2 prolonged to” value [5, 13] of the same compound?
Answer: 1.81 fold

Question: What about the “AUCinf increased to (range over patients)” value ([5]; with voriconazole vs ruxolitinib alone, range) of the same compound?
Answer: 1.44–3.35 fold

Question: What about the “maximum tolerated dose (MTD)” value (healthy people; once daily) of the same compound?
Answer: 100 mg

Question: And the “maximum tolerated dose (MTD)” value (healthy people; twice daily)?
Answer: 25 mg

Question: What about the “AUCinf decreased by food” value [6] of the same compound?
Answer: 6%

Question: What about the “Cmax decreased by food” value [6] of the same compound?
Answer: 24.3%

Question: And the “AUCinf increased by” value [7]?
Answer: 232%

Question: And the “AUClast increased by” value [7]?
Answer: 234%

Question: And the “Cmax increased by” value [7]?
Answer: 47%

Question: And the “accumulation on repeated dosing” value [8]?
Answer: no cumulative effect

Question: Which results are given for `C[C@@H](c1ncncc1F)[C@](O)(Cn1cncn1)c1ccc(F)cc1F` [voriconazole]?
Answer: adverse effects ([2]; voriconazole 200 mg per 12 h without loading dose, first four patients): no adverse effects were observed; bioavailability [1]: 96%; inhibition of BCRP [9]: does not inhibit; difference between two trough concentrations (C12-C0)/C12×100% [10]: less than 15%
